This note sets out measurements from US12564597B2 (priority 2020, dated 2026).

The nature of data set [1]: Example 2B: similar metabolism analysis of further deuterated ibogaine analogs. It counts as in vitro ADME. The following applies: present tense, no data. The procedure:
A similar analysis is performed with each of CD2HO-ibogamine, CDH2O-ibogamine, CD3CD2O-ibogamine, CD3CH2O-ibogamine, CH3CD2O-ibogamine and CH3CDHO-ibogamine.

A short description of data set [2]: Plasma pharmacokinetics and brain distribution in male Wistar rats after a single intraperitoneal dose. Particulars: for AUC(0-t) / Cmax / Tmax: ip, 40 mg/kg; for AUC(0-t): AUClast. The procedure:
Formulation strengths for intraperitoneal administration was 4 mg/mL. A weighed quantity of compound was combined with an appropriate volume of vehicle (10% ethanol and 90% normal saline), the mixture was warmed to 55° C. and vortexed until a clear yellowish solution was obtained. The dosing volume administered was 10 mL/kg for intraperitoneal route.
Healthy male Wistar rats (8-12 weeks old) weighing between 280 to 300 g were procured from Global, India. Three rats were housed in each cage. […] Temperature and humidity were recorded by auto-controlled data logger system. All the animals were provided laboratory rodent diet (Envigo Research private Ltd, Hyderabad). Reverse osmosis water treated with ultraviolet light was provided ad libitum.
Blood samples (approximately 120 μL) were collected under light isoflurane anesthesia from retro orbital plexus from a set of three rats at specified time intervals. Samples were collected into labeled micro-tubes, containing K2EDTA solution (10 μL of 20% K2EDTA of solution per mL of blood) as an anticoagulant. Plasma was immediately harvested from the blood by centrifugation at 4000 rpm for 10 min at 4±2° C. and stored below −70±10° C. until bioanalysis.
Immediately, after blood collection animals were euthanized with excess CO2 and brain was isolated at each time point. Brain was rinsed three times in ice cold PBS (for 5-10 seconds/rinse using ˜5-10 mL fresh PBS in disposable petri dish for each rinse) and dried on blotting paper. Brain samples were homogenized using ice-cold phosphate buffer saline (pH 7.4) and homogenates were stored below −70±10° C. until analysis. Total homogenate volume was three times the tissue weight.
The extraction procedure for plasma and brain samples and the spiked plasma and brain calibration standards were identical: A 25 PL of study sample or spiked plasma and brain calibration standard was added to individual pre-labeled micro-centrifuge tubes followed by 100 PL of internal standard prepared in Acetonitrile (Glipizide, 500 ng/mL) was added except for blank, where 100 μL of Acetonitrile was added. Samples were vortexed for 5 minutes and then centrifuged for 10 minutes at a speed of 4000 rpm at 4° C. Following centrifugation, 100 μL of clear supernatant was transferred to a 96 well plate and analyzed using LC-MS/MS.
Non-compartmental analysis tool of Phoenix WinNonlin® (Version 7.0) was used to assess the pharmacokinetic parameters. Peak plasma concentrations (Cmax) and time for the peak plasma concentrations (Tmax) were the observed values. The areas under the concentration time curve (AUClast and AUCinf) were calculated by linear trapezoidal rule. The terminal elimination rate constant, ke was determined by regression analysis of the linear terminal portion of the log plasma concentration-time curve.

The nature of data set [3]: Metabolic stability and noribogaine formation in rat liver microsomes (RLM). Particulars: for Percentage turnover of test compounds (percent remaining): 10 μM, +NADPH. The procedure:
(§1) Metabolism Studies. Metabolic stability of test compounds was evaluated in liver microsomes from rat (RLM) and human (HLM). This was accomplished by incubating test compounds with microsomes and monitoring disappearance of parent compound as well as metabolite formation over time using LC-MS/MS in Multiple Reaction Monitoring mode (MRM).
(§2) Stock solutions of test compounds were prepared in DMSO at a concentration of 10 mM.
(§3) Total Incubation volume: 100 μL
(§4) Compound concentration: 10 μM
(§5) Protein Concentration: 0.5 mg/mL (0.25 mg/mL for positive controls)
(§6) From the above mix, 70 PL was added to individual wells of 96 well reaction plates and pre-incubated at 37° C. for 5 min. […] Reactions without NADPH and buffer controls (minus NADPH) at 0 min and 60 min were also incubated to rule out non-NADPH metabolism or chemical instability in the incubation buffer. All reactions were terminated using 100 μL of ice-cold acetonitrile containing internal standard (glipizide) at 0, 5, 15, 30 and 60 min.
(§7) Stock solution of noribogaine was prepared in DMSO at a concentration of 20 mM and serially diluted in DMSO to prepare 10, 3, 1, 0.3, 0.1 and 0.03 mM solutions respectively.
(§8) Samples were monitored for parent compounds disappearance and formation of metabolite in MRM mode using LC-MS/MS instrument (API-4000 with Waters UPLC).
(§9) The percent remaining of test compounds and positive control in each sample was determined by considering peak area ratio in the 0 minute sample as 100%.
(§10) In vitro intrinsic clearance (CL′int) (units in mL/min/kg) was calculated using the formula: […]
(§11) For human, monkey, dog, rat and mouse the liver weight are 20 gm, 32 gm, 32 gm, 40 gm and 90 gm respectively.

The next data set in a line: in vitro. The procedure:
as §1, §2, §3, §4, §5, §6, §7, §8, §9, §10, §11

Data set [4] is described as follows: Buffer control for chemical instability in the incubation buffer. It is filed as physicochemical. Particulars: Kphos buffer pH 7.4, 37° C., no microsomes, minus NADPH.
Where [5] appears, read: 0.08 h after CD3O-ibogamine 40 mg/kg i.p.
Setting [6] is: 0.08 h after ibogaine 40 mg/kg i.p.
[7] abbreviates: 0.5 h after CD3O-ibogamine 40 mg/kg i.p.
Setting [8] is: 0.5 h after ibogaine 40 mg/kg i.p.
The mark [9] stands for this setting: 1 h after CD3O-ibogamine 40 mg/kg i.p.
The mark [10] stands for this setting: 1 h after ibogaine 40 mg/kg i.p.
The mark [11] stands for this setting: 2 h after CD3O-ibogamine 40 mg/kg i.p.
Where [12] appears, read: 2 h after ibogaine 40 mg/kg i.p.
The mark [13] stands for this setting: 3 h after CD3O-ibogamine 40 mg/kg i.p.
Setting [14] is: 3 h after ibogaine 40 mg/kg i.p.
The mark [15] stands for this setting: male, Wistar, rat, in vivo, plasma, analyte after CD3O-ibogamine 40 mg/kg i.p.
[16] abbreviates: male, Wistar, rat, in vivo, plasma, analyte after ibogaine 40 mg/kg i.p.
[17] abbreviates: male, Wistar, rat, in vivo, brain, analyte after CD3O-ibogamine 40 mg/kg i.p.
Where [18] appears, read: male, Wistar, rat, in vivo, brain, analyte after ibogaine 40 mg/kg i.p.

As for `[2H]COc1ccc2[nH]c3c(c2c1)CCN1CC2CC(CC)C1C3C2` (stereo not drawn) [CDH2O-ibogamine], in data set [1], the “degradation compared to ibogaine” value was “at least as fast or faster than ibogaine” and the “formation of noribogaine compared to that of ibogaine” value is given as “as fast or slower”.

Turning to `CCC1CC2CC3c4[nH]c5ccc(O)cc5c4CCN(C2)C13` (stereo not drawn) [Noribogaine], the Mean brain concentration was 2997 ng/g in data set [2] (setting [5]); 2383 ng/g in data set [2] (setting [6]); 10413 ng/g in data set [2] (setting [7]); 14563 ng/g in data set [2] (setting [8]); 13254 ng/g in data set [2] (setting [9]); 17727 ng/g in data set [2] (setting [10]). In addition, the Mean brain concentration in data set [2] (setting [11]) is listed as 14940 ng/g; in data set [2] (setting [12]) it was 11692 ng/g; in data set [2] (setting [13]), 10509 ng/g; in data set [2] (setting [14]), 10540 ng/g; in data set [2] (male, Wistar, rat, in vivo) it was 17341 ng/g. Besides, the Mean plasma concentration stood at 208 ng/mL in data set [2] (setting [5]); 312 ng/mL in data set [2] (setting [6]); 677 ng/mL in data set [2] (setting [7]); 1179 ng/mL in data set [2] (setting [8]); 736 ng/mL in data set [2] (setting [9]); 1455 ng/mL in data set [2] (setting [10]). For the same molecule, the Mean plasma concentration in data set [2] (setting [11]) is listed as 690 ng/mL; in data set [2] (setting [12]), 846 ng/mL; in data set [2] (setting [13]) it was 584 ng/mL; in data set [2] (setting [14]) it was 861 ng/mL; in data set [2] (male, Wistar, rat, in vivo), 871 ng/mL. Besides, the AUClast in data set [2] (brain, analyte after CD3O-ibogamine 40 mg/kg i.p.) turned out to be 36953.27 ng·h/g; in data set [2] (brain, analyte after ibogaine 40 mg/kg i.p.), 39658.47 ng·h/g. Further, the values for the AUC(0-t) in data set [2] (setting [15]) and in data set [2] (setting [16]) were 1970 ng·h/mL and 3030 ng·h/mL, respectively. In addition, the Cmax (as a rule, the maximum level reached in the sampled fluid or tissue) in data set [2] (setting [17]) is 14900 ng/g; in data set [2] (setting [18]) it was 17700 ng/g; in data set [2] (setting [15]), 736 ng/mL; in data set [2] (setting [16]), 1460 ng/mL. Moreover, the Tmax – broadly, the time at which the peak concentration occurs – was 2 h in data set [2] (setting [17]), 1 h in data set [2] (setting [18]), 1 h in data set [2] (setting [15]) and 1 h in data set [2] (setting [16]).

Regarding `CCOc1ccc2[nH]c3c(c2c1)CCN1C[C@H]2C[C@H](CC)C1[C@H]3C2` [EtO-Ibogamine, 10-ethoxy-ibogamine], the “CLh, int” value in data set [3] (RLM) came out at 445 mL/min/kg; in “in vitro” (human, pH 7.4) it was 13 mL/min/kg. In addition, the “Percentage turnover of test compounds (percent remaining)” value in data set [3] (RLM, 0 min) turned out to be 100%; in data set [3] (RLM, 5 min), 77%; in data set [3] (RLM, 15 min), 42%; in data set [3] (RLM, 30 min) it was 3%; in data set [3] (RLM, 60 min), 0%; in “in vitro” (human, microsomes, 0 h, pH 7.4), 100%. Besides, the “Percentage turnover of test compounds (percent remaining)” value in the data set “in vitro” (human, microsomes, 5 min, pH 7.4) turned out to be 103%; in “in vitro” (human, microsomes, 0.5 h, pH 7.4), 85%; in the data set “in vitro” (human, microsomes, 1 h, pH 7.4), 66%; in “in vitro” (human, microsomes, […], pH 7.4), 98%. The “% Remaining at 60 min (+NADPH)” value was 0% in data set [3] (RLM, summary) and 66% in the data set “in vitro” (human, microsomes, 1 h, pH 7.4). For the same molecule, the “% Remaining at 60 min (−NADPH)” value in data set [3] (RLM, without NADPH) is reported as 88%; in “in vitro” (human, microsomes, 1 h, pH 7.4), 106%. In addition, in data set [3] (male, rat, microsomes, pH 7.4), the half-life at 10 μM amounted to 6 min. Further, in “in vitro” (human, microsomes, pH 7.4), the half-life was over 1 h. Further, the “rate of conversion of the compound compared to that of ibogaine” value in “in vitro” (liver microsomes, species not given) was “essentially the same”. The “% Remaining at 60 min (Buffer)” value in data set [4] stood at 88%.

Take `[2H]C([2H])([2H])C([2H])([2H])Oc1ccc2[nH]c3c(c2c1)CCN1CC2CC(CC)C1C3C2` (stereo not drawn) [CD3CD2O-ibogamine]: in data set [1], the “degradation compared to ibogaine” value is on record as “at least as fast or faster than ibogaine” and the “formation of noribogaine compared to that of ibogaine” value is listed as “as fast or slower”.

Consider `[2H]C([2H])(C)Oc1ccc2[nH]c3c(c2c1)CCN1CC2CC(CC)C1C3C2` (stereo not drawn) [CH3CD2O-ibogamine], for which, in data set [1], the “degradation compared to ibogaine” value was “at least as fast or faster than ibogaine” and the “formation of noribogaine compared to that of ibogaine” value is “as fast or slower”.

For `[2H]C([2H])Oc1ccc2[nH]c3c(c2c1)CCN1CC2CC(CC)C1C3C2` (stereo not drawn) [CD2HO-ibogamine], in data set [1], the “degradation compared to ibogaine” value is reported as “at least as fast or faster than ibogaine” and the “formation of noribogaine compared to that of ibogaine” value is “as fast or slower”.

`[2H]C([2H])([2H])COc1ccc2[nH]c3c(c2c1)CCN1CC2CC(CC)C1C3C2` (stereo not drawn) [CD3CH2O-ibogamine]: in data set [1], the “degradation compared to ibogaine” value is listed as “at least as fast or faster than ibogaine” and the “formation of noribogaine compared to that of ibogaine” value was “as fast or slower”.

On to `[2H]C(C)Oc1ccc2[nH]c3c(c2c1)CCN1CC2CC(CC)C1C3C2` (stereo not drawn) [CH3CDHO-ibogamine], for which, in data set [1], the “degradation compared to ibogaine” value is reported as “at least as fast or faster than ibogaine” and the “formation of noribogaine compared to that of ibogaine” value is reported as “as fast or slower”.
